Values quoted from earlier work in patent US20250000936A1, “TREATMENT OF GEOGRAPHIC ATROPHY” (Apellis Pharmaceuticals, Inc., priority 2021, published 2025).
Read-outs that look alike come from different tables or passages of the source.

Tested on: patients with GA
Conditions: FILLY, month 12, cited from earlier work

Poly(oxy-1,2-ethanediyl), α-hydro-ω-hydroxy-, 15,15′-diester with N-acetyl-L-isoleucyl-L-cysteinyl-L-valyl-1-methyl-L-tryptophyl-L-glutaminyl-L-α-aspartyl-L-tryptophylglycyl-L-alanyl-L-histidyl-L-arginyl-L-cysteinyl-L-threonyl-2-[2-(2-aminoethoxy) ethoxy]acetyl-N^6-carboxy-L-lysinamide cyclic (2->12)-(disulfide) [pegcetacoplan]
reduction in change from baseline in square root GA lesion size vs sham (every other month, p=0.067): 20% | reduction in change from baseline in square root GA lesion size vs sham (monthly, p=0.008): 29%
